System: C. elegans worms
Assay: Nile Red lipid staining of worm intestine after 48 hours on experimental diet, non-obesogenic setting
Type: in vivo
Settings: for Normalized Nile Red fluorescence, Mean / Normalized Nile Red fluorescence, Median: divided by mean fluorescence of standard diet; for reduced fat levels compared to the Orlistat control / reduced fat levels compared to the standard E. coli OP50 control diet: reduction; for Mean Diff. of fluorescence, Orlistat vs. UF1 100 mg/ml / Mean Diff. of fluorescence, Orlistat vs. UF1 OD7 / Mean Diff. of fluorescence, Standard E. coli Diet vs. UF1 100 mg/ml / Mean Diff. of fluorescence, Standard E. coli Diet vs. UF1 OD7 / Mean Diff. of fluorescence, Standard E. coli Diet vs. Orlistat: Holm-Šidák's multiple comparisons test; for Nile Red fluorescence intensity, Mean / Nile Red fluorescence intensity, Median: 48 hours, non-obesogenic
Procedure: In this example the weight loss potential of the UF1 probiotic strain was studied. The UF1 probiotic strain was tested in a non-obesogenic setting by measuring the amount of internal fat in UF1-treated worms compared to no treatment controls. Orlistat treatment was also included as a positive control for fat reduction.
Methodology—Worms were raised to the L4 larval stage using standard plate culture methods. The L4 larvae were then loaded into a microfluidic chip and fed a diet of live E. coli OP50 (20 mg/ml) in liquid nematode growth media (NGM). After 24 hours on the chip, the media for each experimental cohort was switched to the experimental diet. The animals were maintained on each experimental diet for 48 hours before being fixed and stained with Nile Red—a fluorescent dye that binds lipids. A fluorescent microscopy system was then used to image the brightness of the lipid staining in the intestine of the worms, which correlates to the levels of fat in each animal.
Nile Red gives off fluorescence when illuminated with green light. The brightness of the intestinal saining in each worm per trial was quantified. This allows the measurement of the natural variability in fat levels across individuals. ANOVA was then used to determine if the distributions across treatment conditions were statistically different to one another.
All datasets were combined by normalizing the data in each trial by dividing it by the mean fluorescence value of the standard diet. In the combined data, the UF1 diets reduced fat levels compared to the standard E. coli OP50 control diet by approximately 47% and 46%, respectively. The subjects also had reduced fat levels compared to the Orlistat control by approximately 38% and 37%, respectively.

[1] = All trials combined, UF1 100 mg/ml diet
[2] = All trials combined, UF1 OD7 diet
[3] = All trials combined, normalized, UF1 100 mg/ml diet
[4] = All trials combined, normalized, UF1 OD7 diet
[5] = All trials combined, Holm-Šídák's multiple comparisons test
[6] = Combined data, UF1 100 mg/ml diet
[7] = Trial 1, UF1 100 mg/ml diet, mean fluorescence
[8] = Trial 1, UF1 OD7 diet, mean fluorescence
[9] = Trial 2, UF1 100 mg/ml diet, mean fluorescence
[10] = Trial 2, UF1 OD7 diet, mean fluorescence
[11] = Trial 3, UF1 100 mg/ml diet, mean fluorescence
[12] = All trials combined, Orlistat 6 μg/ml
[13] = Trial 1, live OP50 20 mg/ml + Orlistat 6 μg/ml
[14] = Trial 2, live OP50 20 mg/ml + Orlistat 6 μg/ml
[15] = Trial 3, live OP50 20 mg/ml + Orlistat 6 μg/ml

Propionibacterium freudenreichii UF1
Normalized Nile Red fluorescence, Mean [1]: 0.5321
Normalized Nile Red fluorescence, Median [1]: 0.5247
Normalized Nile Red fluorescence, Mean [2]: 0.5417
Normalized Nile Red fluorescence, Median [2]: 0.5207
Percentage Change from Orlistat [3]: −37.98%
Percentage Change from Standard Diet [3]: −46.79%
Percentage Change from Orlistat [4]: −36.86%
Percentage Change from Standard Diet [4]: −45.83%
Mean Diff. of normalized fluorescence, Orlistat vs. UF1 100 mg/ml [5]: 0.3259
Mean Diff. of normalized fluorescence, Orlistat vs. UF1 OD7 [5]: 0.3162
Mean Diff. of normalized fluorescence, Standard E. coli Diet vs. UF1 100 mg/ml [5]: 0.4679
Mean Diff. of normalized fluorescence, Standard E. coli Diet vs. UF1 OD7 [5]: 0.4583
reduced fat levels compared to the Orlistat control [6]: approximately 38%
reduced fat levels compared to the standard E. coli OP50 control diet [6]: approximately 47%
reduced fat levels compared to the Orlistat control (Combined data, UF1 OD7 diet): ~37%
reduced fat levels compared to the standard E. coli OP50 control diet (Combined data, UF1 OD7 diet): ~46%
Mean Diff. of fluorescence, Orlistat vs. UF1 100 mg/ml (Trial 1): 5160787
Mean Diff. of fluorescence, Orlistat vs. UF1 OD7 (Trial 1): 5293675
Mean Diff. of fluorescence, Standard E. coli Diet vs. UF1 100 mg/ml (Trial 1): 5788977
Mean Diff. of fluorescence, Standard E. coli Diet vs. UF1 OD7 (Trial 1): 5921865
less fat than the Orlistat control (Trial 1, UF1 100 mg/ml diet): approximately 50%
Nile Red fluorescence intensity, Mean (Trial 1, UF1 100 mg/ml diet): 5194112
Nile Red fluorescence intensity, Median (Trial 1, UF1 100 mg/ml diet): 5124444
Percentage Change from Orlistat [7]: −49.84%
Percentage Change from Standard Diet [7]: −52.71%
reduced fat levels compared to the standard E. coli OP50 control diet (Trial 1, UF1 100 mg/ml diet): approximately 53%
less fat than the Orlistat control (Trial 1, UF1 OD7 diet): ~51%
Nile Red fluorescence intensity, Mean (Trial 1, UF1 OD7 diet): 5061224
Nile Red fluorescence intensity, Median (Trial 1, UF1 OD7 diet): 5147920
Percentage Change from Orlistat [8]: −51.12%
Percentage Change from Standard Diet [8]: −53.92%
reduced fat levels compared to the standard E. coli OP50 control diet (Trial 1, UF1 OD7 diet): ~54%
Mean Diff. of fluorescence, Orlistat vs. UF1 100 mg/ml (Trial 2): 1399524
Mean Diff. of fluorescence, Orlistat vs. UF1 OD7 (Trial 2): 2435073
Mean Diff. of fluorescence, Standard E. coli Diet vs. UF1 100 mg/ml (Trial 2): 3021408
Mean Diff. of fluorescence, Standard E. coli Diet vs. UF1 OD7 (Trial 2): 4056957
less fat than the Orlistat control (Trial 2, UF1 100 mg/ml diet): approximately 16%
Nile Red fluorescence intensity, Mean (Trial 2, UF1 100 mg/ml diet): 7612410
Nile Red fluorescence intensity, Median (Trial 2, UF1 100 mg/ml diet): 7441676
Percentage Change from Orlistat [9]: −15.53%
Percentage Change from Standard Diet [9]: −28.41%
reduced fat levels compared to the standard E. coli OP50 control diet (Trial 2, UF1 100 mg/ml diet): approximately 28%
less fat than the Orlistat control (Trial 2, UF1 OD7 diet): ~27%
Nile Red fluorescence intensity, Mean (Trial 2, UF1 OD7 diet): 6576861
Nile Red fluorescence intensity, Median (Trial 2, UF1 OD7 diet): 6691779
Percentage Change from Orlistat [10]: −27.02%
Percentage Change from Standard Diet [10]: −38.15%
reduced fat levels compared to the standard E. coli OP50 control diet (Trial 2, UF1 OD7 diet): ~38%
Mean Diff. of fluorescence, Orlistat vs. UF1 100 mg/ml (Trial 3): 9045435
Mean Diff. of fluorescence, Standard E. coli Diet vs. UF1 100 mg/ml (Trial 3): 18834504
less fat than the Orlistat control (Trial 3, UF1 100 mg/ml diet): approximately 32%
Nile Red fluorescence intensity, Mean (Trial 3, UF1 100 mg/ml diet): 19167276
Nile Red fluorescence intensity, Median (Trial 3, UF1 100 mg/ml diet): 20425415
Percentage Change from Orlistat [11]: −32.06%
Percentage Change from Standard Diet [11]: −49.56%
reduced fat levels compared to the standard E. coli OP50 control diet (Trial 3, UF1 diets (UF1 100 mg/ml)): approximately 50%
reduction in fat level compared with Orlistat (UF1 diets, conclusion in words): stronger reduction in fat level than the anti-obesity drug Orlistat
levels of fat in the intestines of C. elegans worms (non-obesogenic conditions, conclusion in words): reduced the levels of fat

CCCCCCCCCCC[C@@H](C[C@@H]1OC(=O)[C@H]1CCCCCC)OC(=O)[C@H](CC(C)C)NC=O [Orlistat, reference compound]
Normalized Nile Red fluorescence, Mean [12]: 0.8579
Normalized Nile Red fluorescence, Median [12]: 0.8801
Percentage Change from Standard Diet (All trials combined, normalized, Orlistat 6 μg/ml): −14.21%
Mean Diff. of normalized fluorescence, Standard E. coli Diet vs. Orlistat (All trials combined, Holm-Šídák's multiple comparisons test, Orlistat 6 μg/ml): 0.1421
Mean Diff. of fluorescence, Standard E. coli Diet vs. Orlistat (Trial 1, Orlistat 6 μg/ml): 628190
Nile Red fluorescence intensity, Mean [13]: 10354899
Nile Red fluorescence intensity, Median [13]: 10198510
Percentage Change from Standard Diet (Trial 1, live OP50 20 mg/ml + Orlistat 6 μg/ml, mean fluorescence): −5.72%
Mean Diff. of fluorescence, Standard E. coli Diet vs. Orlistat (Trial 2, Orlistat 6 μg/ml): 1621884
Nile Red fluorescence intensity, Mean [14]: 9011934
Nile Red fluorescence intensity, Median [14]: 8938493
Percentage Change from Standard Diet (Trial 2, live OP50 20 mg/ml + Orlistat 6 μg/ml, mean fluorescence): −15.25%
Mean Diff. of fluorescence, Standard E. coli Diet vs. Orlistat (Trial 3, Orlistat 6 μg/ml): 9789069
Nile Red fluorescence intensity, Mean [15]: 28212711
Nile Red fluorescence intensity, Median [15]: 23127648
Percentage Change from Standard Diet (Trial 3, live OP50 20 mg/ml + Orlistat 6 μg/ml, mean fluorescence): −25.76%

Source: patent US20250127825A1, “PROBIOTIC COMPOSITIONS AND METHODS OF USE THEREOF FOR WEIGHT LOSS” (priority 2023, published 2025)
